From a melting point compilation (Tetko et al.) come the findings set out here.

Usually melting point stands for the temperature, or range, at which the solid turns liquid.

Regarding `O=C(O)c1cc(-c2ccc(F)cc2)nc2onc(C3CC3)c12`, the melting point fell in the range of 229 to 231 °C. For the molecule `O=C(CCl)NCC1CCSCC1`, the melting point fell in the range of 83 to 85 °C. `Nc1ccc(C(=O)N2CCCCC2)c(Cl)c1`: the melting point lay in the range of 148 to 150 °C. In turn, `N#CCc1nc2cc(C(F)(F)F)ccc2s1` displayed a melting point of 95 to 97 °C. On to `O=C(O)/C=C/c1cccc(-c2ccccc2)c1`, for which the melting point was 195 to 197 °C. `O=C(O)c1ccn(-c2c(F)cccc2F)n1` came in with a melting point of 179 to 181 °C. With `CC1CCC2(CC1)NC(=O)N(N)C2=O` (stereo not drawn) the figure was 118 to 120 °C; with `Cc1nn(Cc2ccccc2)c(Cl)c1CCl`, 53 to 55 °C. Regarding `CCOC(=O)c1cc2c(nc1N)CCCC2`, the melting point lay in the range of 127 to 129 °C. For `CCOC(=O)COc1cccc(C(=O)O)c1`, the melting point lay in the range of 119 to 121 °C. With `CC(=O)Nc1ccccc1OCc1ccc(C(=O)O)o1` the figure was 179 to 181 °C; with `COc1ccc(NCCCC(=O)O)cc1`, 204 to 206 °C; with `O=S(=O)(CCN1CCC(O)CC1)c1ccc(Br)cc1`, 117 to 119 °C.

For `O=C(c1ccc(F)cc1)N1CCNCC1`, the melting point was in the range of 74 to 76 °C.

In the case of `CC1(C)CN(CC(N)=NO)CCO1`, the melting point is 75 to 77 °C. Consider `O=C(O)Cc1csc(-c2cccnc2)n1`, for which the melting point lay in the range of 115 to 117 °C. As to `CC(C)Cc1ccc(-c2csc(N)n2)cc1`, the melting point is 108 to 110 °C. In turn, `Cc1ccc(-c2nc(S)n[nH]2)cc1` had a melting point of 125 to 128 °C. The molecule `O=C(O)C(NC1CC1)c1ccc(O)cc1` (stereo not drawn) displayed a melting point of 210 to 212 °C.

As for `C=CCSc1nc2ccccc2[nH]1`, the melting point is 139 to 141 °C. Consider `Cn1ncc(C(=O)O)c1C1CC1`, for which the melting point was 104 to 106 °C. Turning to `O=S(=O)(NC1CCCNC1)c1ccccc1` (stereo not drawn), the melting point fell in the range of 133 to 135 °C. `CN(C)c1nc[nH]c(=O)c1N` came in with a melting point of 158 to 160 °C. For `Cc1cc(CN2CCNCC2)no1`, the melting point was 59 to 71 °C. `CCc1n[nH]c(=O)c(C#N)c1CC` gave a melting point of 166 to 168 °C.

As to `CC(C)S(=O)(=O)Nc1cccc(O)c1`, the melting point lay within 123 to 125 °C. `Cc1cc[nH]c(=O)c1C(N)=O`: the melting point was in the range of 235 to 237 °C. With `CC(C)(C)OC(=O)NC1CCCCCC1C(=O)O` (stereo not drawn), the melting point lay within 123 to 125 °C.

As to `Nc1sc2c(c1C(=O)c1ccc(F)cc1)CCC2`, the melting point is 139 to 141 °C. `COc1ccc(SCC(=O)O)cc1`: the melting point was 77 to 79 °C.

As for `NC(=O)COc1ccc(Cl)cc1S(N)(=O)=O`, the melting point was in the range of 214 to 216 °C.

As for `COc1ccc(S(N)(=O)=O)cc1NC(C)=O`, the melting point was 217 to 219 °C. `CN1C(=O)CC(CO)C1c1cccc(Cl)c1` (stereo not drawn) showed a melting point of 101 to 103 °C. Turning to `NCCc1ccccc1O`, the melting point lay within 107 to 109 °C.

In turn, `O=C1CSc2ccc(C(=O)O)cc2N1` returned a melting point of 251 to 253 °C. In the case of `Sc1nnc(COc2ccccc2Cl)o1`, the melting point lay in the range of 135 to 137 °C. Regarding `O=C(CCl)Nc1cc(S(=O)(=O)N2CCOCC2)ccc1Cl`, the melting point was 131 to 133 °C. `CCOC(=O)c1ccc2c(c1)CCCN2` came in with a melting point of 79 to 81 °C.

Molecule `CCc1c(C)sc(N)c1C#N` came in with a melting point of 103 to 105 °C. Molecule `O=C(Nc1cccc(Br)c1)c1cccc(S(=O)(=O)N2CCCCCC2)c1` came in with a melting point of 149 to 151 °C. Molecule `NCc1ccc(C(=O)Nc2ccc(F)cc2)cc1` had a melting point of 145 to 147 °C. With `O=C1CCCc2[nH]c(=O)c(C(=O)O)cc21` the figure was 289 to 291 °C. Consider `CCOC(=O)c1ccc2c(c1)nc(C)n2CC`, for which the melting point fell in the range of 70 to 72 °C. `CC(C)(C)CC(=O)NCC(=O)O` returned a melting point of 106 to 108 °C. `O=C(CCl)NCCCc1ccccc1` yielded a melting point of 76 to 79 °C. For the molecule `COC(=O)CCc1ccc(N)cc1`, the melting point is 39 to 41 °C.

For the molecule `CC(C)(C)OC(=O)NC(C(=O)O)c1cccc(Cl)c1` (stereo not drawn), the melting point was in the range of 128 to 130 °C.

Turning to `O=C(O)C1CC1c1c(Cl)cccc1Cl` (stereo not drawn), the melting point lay in the range of 144 to 146 °C. To `NCc1ccc(C(=O)N2CCNC(=O)C2)cc1` belongs 143 to 145 °C. Take `Nc1ccccc1Cc1ccccc1`: the melting point was 55 to 57 °C.

In turn, `ClCc1nc(Cl)c2cnn(-c3ccccc3)c2n1` showed a melting point of 112 to 114 °C. In turn, `Cc1ncc(CO)c(C)n1` displayed a melting point of 52 to 54 °C.

In turn, `CC1=NN(C)C(=O)C1C` (stereo not drawn) returned a melting point of 132 to 134 °C. To `CC(=O)Nc1cc(S(=O)(=O)Cl)ccc1F` belongs 161 to 163 °C; to `O=C1CC(c2ccccc2)NCCN1` (stereo not drawn), 102 to 104 °C; to `COC(=O)c1ccc2ccn(C)c2c1`, 91 to 93 °C. As to `Cc1cc(C(=O)O)c(C)n1-c1cccc(Br)c1`, the melting point fell in the range of 158 to 160 °C. With `CC1(C)CCCC(C)(C)N1O` the figure was 36 to 38 °C. `Nc1cccc(-c2nccn2CC(=O)O)c1` had a melting point of 249 to 251 °C. The molecule `Cc1ccc(-c2n[nH]cc2Br)cc1` showed a melting point of 104 to 106 °C. The molecule `Nc1nonc1-c1cccc(Br)c1` came in with a melting point of 137 to 139 °C.

As to `CC(C)(C)NS(=O)(=O)c1cc(C(=O)O)ccc1Cl`, the melting point is 212 to 214 °C.

For the molecule `Nc1ccc(NCCCC(=O)O)cc1`, the melting point lay in the range of 148 to 150 °C.

Regarding `Cc1cc(=O)[nH]cc1C(=O)O`, the melting point was 306 to 308 °C. In the case of `CCc1ccc(C(=O)O)cc1S(=O)(=O)Cl`, the melting point was 181 to 183 °C. In the case of `CC(C)c1noc2nc(C3CC3)cc(C(=O)O)c12`, the melting point lay in the range of 178 to 180 °C. For the molecule `COc1ccc2[nH]c3c(c2c1)CCC3`, the melting point lay within 119 to 121 °C.

`OCc1c[nH]c2ccc(Br)cc12` yielded a melting point of 112 to 114 °C. With `O=C(CCl)NCc1ccccc1COc1ccccc1`, the melting point was 100 to 102 °C. Consider `NNC(=O)Cn1cnc2ccccc21`, for which the melting point was 108 to 110 °C.

With `COC(=O)CCCN1C(=O)NC(C)(C)C1=O`, the melting point lay within 60 to 62 °C. To `Cc1nc(COc2ccc(C=O)cc2)no1` belongs 57 to 59 °C; to `CC(C)(C)c1ccc(-c2nnc(S)n2N)cc1`, 105 to 106 °C; to `Cc1ccc(-n2nc(C(C)(C)C)cc2N)cc1`, 116 to 118 °C.

`O=C(O)c1c[nH]nc1-c1ccccc1Cl`: the melting point fell in the range of 255 to 257 °C. Turning to `O=C(Nc1ccsc1C(=O)O)c1ccc(Br)cc1`, the melting point fell in the range of 240 to 242 °C. In turn, `CNC(=S)NCc1ccco1` yielded a melting point of 74 to 76 °C. For the molecule `COC(=O)Cc1cc(O)n[nH]1`, the melting point fell in the range of 143 to 145 °C. As for `O=C(O)c1cc(N2CCOCC2)ccc1[N+](=O)[O-]`, the melting point is 188 to 192 °C. With `O=Cc1ccc(OCCC(=O)O)cc1` the figure was 132 to 134 °C; with `COC(=O)C(=CN(C)C)C(C)=O`, 47 to 49 °C. On to `CC(C)c1nnc(NC(=O)OCC(F)(F)F)s1`, for which the melting point fell in the range of 189 to 191 °C. With `Sc1nnc(NCc2ccccc2)s1` the figure was 146 to 148 °C; with `Cc1cccc(C)c1Nc1nnc(SCC(=O)O)s1`, 207 to 209 °C; with `O=C(O)CC(O)(c1nccn1Cc1ccccc1)C(F)(F)F` (stereo not drawn), 152 to 154 °C. In turn, `O=C(O)C1=NOC(c2ccccc2)C1` (stereo not drawn) registered a melting point of 102 to 104 °C.

`COc1ccc(Cn2ncc3cc(C(=O)O)cnc32)c(OC)c1` yielded a melting point of 205 to 207 °C. For `Cc1nccn1Cc1ccc(N)cc1`, the melting point is 159 to 161 °C. To `CC(C)Nc1ccc(Br)cc1[N+](=O)[O-]` belongs 97 to 99 °C. Take `O=C(CCl)N1CCC(c2nc3ccccc3s2)CC1`: the melting point lay in the range of 59 to 61 °C. The molecule `Cc1ccc2c(CCN)c[nH]c2c1` registered a melting point of 139 to 141 °C. For `CC(=O)c1cccc(NC(=O)CCl)c1`, the melting point fell in the range of 112 to 114 °C.

With `CCCOc1cccc(C(=O)O)c1`, the melting point was 73 to 75 °C. With `CCCS(=O)(=O)Nc1cccc(N)c1` the figure was 63 to 65 °C; with `O=C(O)Cc1ccc2c(c1)CCCC2`, 78 to 80 °C. Consider `Cn1c(S)nnc1N1CCOCC1`, for which the melting point lay in the range of 194 to 196 °C. Molecule `Cn1nnnc1SCC(=O)Nc1ccc(C(=O)O)cc1` showed a melting point of 190 to 192 °C.

For the molecule `O=C(CCl)Nc1ccncc1`, the melting point was 295 to 297 °C. Molecule `Nc1cc(CC2CCCC2)no1` showed a melting point of 67 to 69 °C. As for `CC1=NOC(=O)C1CC(=O)O` (stereo not drawn), the melting point lay within 149 to 151 °C.

Regarding `CC(N)c1ccc(N2CCCC2=O)cc1` (stereo not drawn), the melting point was 62 to 64 °C. `O=C(NCC(F)(F)F)c1cccc(S(=O)(=O)Cl)c1` displayed a melting point of 83 to 85 °C. With `O=C(O)C1Cc2cc(Cl)ccc2O1` (stereo not drawn) the figure was 114 to 118 °C; with `Cn1cc(N)cc(Br)c1=O`, 159 to 161 °C.

As for `O=Cc1ccc(OCc2ccc(Cl)cc2)cc1`, the melting point fell in the range of 72 to 74 °C. To `Fc1ccc(-c2nnc3cc(Cl)ncn23)c(F)c1` belongs 170 to 172 °C; to `NNc1ccncc1Cl`, 158 to 160 °C. In the case of `Cc1nc(N)c(I)cc1Br`, the melting point is 135 to 137 °C. With `NS(=O)(=O)c1ccc(Cl)cc1F` the figure was 104 to 106 °C; with `CC1CN(C(=O)c2cnn(C)c2N)CC(C)O1` (stereo not drawn), 152 to 154 °C.

In the case of `CSc1nc(C)nc(C)c1C(=O)O`, the melting point is 223 to 225 °C. For the molecule `CC(C)c1nnc(S)[nH]1`, the melting point was 156 to 158 °C. As to `O=C(O)CC1(CC(=O)Nc2nccs2)CCCCC1`, the melting point fell in the range of 175 to 177 °C. On to `O=C(O)C1(c2ccc(Br)cc2)CCCC1`, for which the melting point fell in the range of 176 to 178 °C.

With `Cc1cccc2c3c([nH]c12)C(N)CCC3` (stereo not drawn), the melting point lay within 130 to 132 °C. The molecule `Nc1nnc(Cc2cccc3ccccc23)o1` registered a melting point of 224 to 226 °C.

In the case of `O=C(O)CC1Sc2ccccc2NC1=O` (stereo not drawn), the melting point fell in the range of 188 to 190 °C.

In turn, `N#Cc1ccc(-c2cnc(CCl)o2)cc1` showed a melting point of 124 to 126 °C. Consider `O=C(O)c1cc(COc2c(Cl)cccc2Cl)on1`, for which the melting point was in the range of 159 to 161 °C. `Cc1cc(-n2cccc2)ccc1C(=O)O` registered a melting point of 150 to 152 °C. The molecule `CCc1nc2c(s1)C(O)CCC2` (stereo not drawn) came in with a melting point of 75 to 77 °C. For `CS(=O)(=O)OC1CCOC2(CCOCC2)C1` (stereo not drawn), the melting point was in the range of 110 to 112 °C. Molecule `c1cnc2c(c1)NCCC2` yielded a melting point of 103 to 105 °C.
